Patent US11510872B2, “Nanoparticle-lipid composite carriers and uses thereof” (Northwestern University, priority 2017, dated 2022)

System: HepG2 cells
Test: MTS assay for cell viability / cytotoxicity in HepG2 cells
Assay type: cell-based
Details: Homo sapiens; HepG2 cells after 48 h, without thermal activation; read-out: IC50 μg PTX/ml
Method: HepG2 liver cancer cell line and J774 murine macrophage cells (provided by Prof. Colby Shad Thaxton, Department of Urology, Feinberg School of Medicine, Northwestern University) were grown in RPMI-1640 medium containing 10% FBS and penicillin/streptomycin (100 units/mL and 100 μg/mL, respectively). The cells were cultured at 37° C. with 5% CO2 atmosphere in T75 flasks.
The biocompatibility of the MLCCs and cytotoxicity was tested using MTS (3-(4,5-dimethylthiazol-2-yl)-5-(3-carboxymethoxyphenyl)-2-(4-sulfophenyl)-2H-tetrazolium) assay. Briefly, J774 and HepG2 cells were plated at 1×10^5 cells per well in 24-well plate with 70-80% of confluency. […] To compare the effect of drug loaded MLCCs with native drug, Cells were also treated with different concentration of native drug (similar to amount of drug entrapped within the MLCCs as calculated from measurement via HPLC). […] MTS assay was used to quantify the cell viability according to the protocol provided by the manufacture (CellTiter 96 Aqueous One Solution Cell Proliferation Assay; Promega). The optical densities were recorded at 490 nm and 700 nm using BioTek Synergy™ 4 Hybrid Microplate Reader. The background absorbance at 700 nm was subtracted from absorbance at 490 nm. […] The IC50 values were calculated by nonlinear curve fit using dose response-inhibition equation with Graphpad Prism 5.0. […]

## CC(=O)O[C@H]1C(=O)[C@@]2(C)[C@H]([C@H](OC(=O)c3ccccc3)[C@]3(O)C[C@H](OC(=O)[C@H](O)[C@@H](NC(=O)c4ccccc4)c4ccccc4)C(C)=C1C3(C)C)[C@]1(OC(C)=O)CO[C@@H]1C[C@@H]2O [PTX, paclitaxel]
  IC50: 0.63 µg/mL
